According to US20260083722A1, “BIFUNCTIONAL DEGRADERS COMPRISING ELECTROPHILIC PROTACS THAT ENGAGE DCAF1 AND PHARMACEUTICAL COMPOSITIONS COMPRISING THE SAME” (THE SCRIPPS RESEARCH INSTITUTE, priority 2022, published 2026):
Where a SMILES comes first, the peptide text is derived from it. The star is where a group is joined. Cbz = O=C(OCc1ccccc1)*

Tests used:
[1] = biological target: T1, recombinant DCAF1-WT (a.a.'s 1046-1396) (Homo sapiens, UniProt Q9Y4B6); test: gel-ABPP with recombinant purified DCAF1-WT doped into HEK293T cell proteome; assay type: binding; conditions: for block of MY-11B labeling of recombinant DCAF1 by pre-treatment: 6.25-100 μM, MY-11B 25 μM, 1 h
T1 construct: form of DCAF1 containing the WD40 domain (amino acids (a.a.'s) 1046-1396); made in house
T1 sequence (Q9Y4B6 1046-1396): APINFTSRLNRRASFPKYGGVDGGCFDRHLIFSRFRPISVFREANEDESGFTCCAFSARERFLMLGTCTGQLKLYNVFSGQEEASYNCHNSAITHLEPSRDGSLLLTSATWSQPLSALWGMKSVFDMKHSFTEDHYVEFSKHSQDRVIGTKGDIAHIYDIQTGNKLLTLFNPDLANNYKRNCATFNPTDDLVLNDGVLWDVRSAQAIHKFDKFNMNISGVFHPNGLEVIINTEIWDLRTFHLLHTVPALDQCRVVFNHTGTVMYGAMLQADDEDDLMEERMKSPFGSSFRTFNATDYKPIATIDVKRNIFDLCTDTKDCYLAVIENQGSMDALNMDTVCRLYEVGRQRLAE
T1 sequence (Q16531 whole entry partner, the tested form may be a part): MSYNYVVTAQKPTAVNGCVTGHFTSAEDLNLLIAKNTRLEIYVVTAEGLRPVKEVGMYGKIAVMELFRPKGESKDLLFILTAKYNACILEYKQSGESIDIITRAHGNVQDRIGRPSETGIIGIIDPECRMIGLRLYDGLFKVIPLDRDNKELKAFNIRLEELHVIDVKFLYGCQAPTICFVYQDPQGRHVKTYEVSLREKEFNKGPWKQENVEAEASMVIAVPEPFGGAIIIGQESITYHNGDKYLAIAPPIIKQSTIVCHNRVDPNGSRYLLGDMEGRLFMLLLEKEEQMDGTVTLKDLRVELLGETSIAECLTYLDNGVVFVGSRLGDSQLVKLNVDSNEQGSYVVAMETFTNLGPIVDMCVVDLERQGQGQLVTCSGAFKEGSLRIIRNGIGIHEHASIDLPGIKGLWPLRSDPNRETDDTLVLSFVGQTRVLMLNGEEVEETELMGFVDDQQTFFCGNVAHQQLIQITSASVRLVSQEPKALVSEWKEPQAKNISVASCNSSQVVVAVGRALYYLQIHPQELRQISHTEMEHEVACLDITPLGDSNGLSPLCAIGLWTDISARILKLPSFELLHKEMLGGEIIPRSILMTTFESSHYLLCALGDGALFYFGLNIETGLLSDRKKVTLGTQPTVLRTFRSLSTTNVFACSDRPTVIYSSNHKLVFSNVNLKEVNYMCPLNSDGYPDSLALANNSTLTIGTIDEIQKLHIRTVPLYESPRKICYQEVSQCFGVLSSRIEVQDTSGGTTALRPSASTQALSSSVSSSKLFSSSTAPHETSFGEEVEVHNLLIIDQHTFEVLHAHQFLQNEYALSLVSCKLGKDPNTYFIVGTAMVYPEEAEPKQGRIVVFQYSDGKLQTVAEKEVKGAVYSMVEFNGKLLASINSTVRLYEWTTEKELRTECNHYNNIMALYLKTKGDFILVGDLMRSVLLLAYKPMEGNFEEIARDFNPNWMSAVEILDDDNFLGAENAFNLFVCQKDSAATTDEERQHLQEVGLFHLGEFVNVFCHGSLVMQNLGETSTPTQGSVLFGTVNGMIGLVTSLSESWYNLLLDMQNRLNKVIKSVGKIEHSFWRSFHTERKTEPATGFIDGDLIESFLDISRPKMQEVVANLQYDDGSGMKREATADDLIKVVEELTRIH
Text: FIG. 2 that azetidine acrylamides stereo- and site-selectively engage recombinant DCAF1_C1113. (A) Domain map of DCAF1 with the region used for recombinant protein studies marked in a bracket (a.a.'s 1046-1396) and C1113 highlighted in red. (B) Crystal structure of a DCAF1-Vpx complex (pdb: 5AJA). DCAF1 (a.a.'s 1046-1396) is shown in cyan, Vpx is shown in yellow, and C1113, which is located at the DCAF1-Vpx interface is shown in red. (C) Structures of alkyne-modified azetidine acrylamides MY-11A (5) and MY-11B (6). (D) Gel-ABPP showing the concentration-dependent reactivity of MY-11A and MY-11B (1 h) reactivity with recombinant, purified DCAF1-WT or the DCAF1-C1113A mutant (0.06 μg/μL of DCAF1 protein per sample) doped into HEK293T cell proteome (1 μg/μL). MY-11A/B labeling of proteins was visualized by CuAAC conjugation to an azide-rhodamine tag followed by SDS-PAGE and in-gel fluorescence scanning. Results are from a single experiment representative of two independent experiments. (E) Gel-ABPP showing the concentration-dependent effects of MY-1A and MY-1B on MY-11B reactivity with DCAF1-WT. Samples were treated with MY-1A/B for 2 h, followed by MY-11B (25 μM, 1 h) and analyzed as described in (D). Left, quantification of data presented as mean values±SEM from two independent experiments. Right, representative gel-ABPP results. (D, E) Lower images are Coomassie blue-stained gels corresponding to ABPP gels shown in upper images.
(A) Structures of candidate electrophilic PROTACs YT41R (7), YT41S (8), YT47R (9), and YT47S (10). (B) Gel-ABPP showing the concentration-dependent effects of YT41R and YT47R on MY-11B reactivity with DCAF1-WT protein (0.06 μg/μL of DCAF1 protein per sample) doped into HEK293T cell proteome (1 μg/μL). Also shown are the effects of YT41S and YT47S tested at a single concentration (100 μM). Samples were treated with heterobifunctional compounds for 2 h, followed by MY-11B (25 μM, 1 h) and analyzed as described in FIG. 2D. Left, representative gel-ABPP results. Lower image is Coomassie blue-stained gel corresponding to ABPP gel shown in upper image. Right, quantification of data presented as mean values±SEM from two independent experiments.
DCAF1 is a multi-domain substrate receptor for CRL4 ligases (FIG. 2A) that has diverse physiological and disease functions, including being co-opted by the HIV-2 virus to promote degradation of the antiviral host protein SAMHD1^27-28. […] We verified the stereo- and site-selective engagement of DCAF1_C1113 by azetidine acrylamides using alkynylated analogues of MY-1A and MY-1B (MY-11A (5) and MY-11B (6), respectively; FIG. 2C). For these experiments, we doped into HEK293T cell lysates a recombinantly expressed and purified form of DCAF1 containing the WD40 domain (amino acids (a.a.'s) 1046-1396), in complex with the CRL4 adaptor protein DDB1^31, and exposed these samples to varying concentrations of MY-11A or MY-11B. After 1 h, we assessed MY-11A and MY-11B engagement of DCAF1 by copper-catalyzed azide-alkyne cycloaddition (CuAAC)^32 with an azide-rhodamine reporter tag followed by SDS-PAGE and in-gel fluorescence scanning^33. […] We used gel-ABPP to quantify an in vitro target engagement value (TE50) of approximately 25 μM (95% C.I.=13-38 μM) for MY-1B labeling of DCAF1 (FIG. 2E, left).

DCAF1_C1113 = biological target: T2, DCAF1_C1113 (Homo sapiens, UniProt Q9Y4B6); test: cysteine-directed MS-ABPP (IA-DTB probe) in primary human T cells; assay type: cell-based; conditions: 3 h; for reactivity with DCAF1_C1113: 20 μM compound
T2 construct: endogenous in cells; host or cells: primary human T cells
T2 sequence (Q9Y4B6 whole entry): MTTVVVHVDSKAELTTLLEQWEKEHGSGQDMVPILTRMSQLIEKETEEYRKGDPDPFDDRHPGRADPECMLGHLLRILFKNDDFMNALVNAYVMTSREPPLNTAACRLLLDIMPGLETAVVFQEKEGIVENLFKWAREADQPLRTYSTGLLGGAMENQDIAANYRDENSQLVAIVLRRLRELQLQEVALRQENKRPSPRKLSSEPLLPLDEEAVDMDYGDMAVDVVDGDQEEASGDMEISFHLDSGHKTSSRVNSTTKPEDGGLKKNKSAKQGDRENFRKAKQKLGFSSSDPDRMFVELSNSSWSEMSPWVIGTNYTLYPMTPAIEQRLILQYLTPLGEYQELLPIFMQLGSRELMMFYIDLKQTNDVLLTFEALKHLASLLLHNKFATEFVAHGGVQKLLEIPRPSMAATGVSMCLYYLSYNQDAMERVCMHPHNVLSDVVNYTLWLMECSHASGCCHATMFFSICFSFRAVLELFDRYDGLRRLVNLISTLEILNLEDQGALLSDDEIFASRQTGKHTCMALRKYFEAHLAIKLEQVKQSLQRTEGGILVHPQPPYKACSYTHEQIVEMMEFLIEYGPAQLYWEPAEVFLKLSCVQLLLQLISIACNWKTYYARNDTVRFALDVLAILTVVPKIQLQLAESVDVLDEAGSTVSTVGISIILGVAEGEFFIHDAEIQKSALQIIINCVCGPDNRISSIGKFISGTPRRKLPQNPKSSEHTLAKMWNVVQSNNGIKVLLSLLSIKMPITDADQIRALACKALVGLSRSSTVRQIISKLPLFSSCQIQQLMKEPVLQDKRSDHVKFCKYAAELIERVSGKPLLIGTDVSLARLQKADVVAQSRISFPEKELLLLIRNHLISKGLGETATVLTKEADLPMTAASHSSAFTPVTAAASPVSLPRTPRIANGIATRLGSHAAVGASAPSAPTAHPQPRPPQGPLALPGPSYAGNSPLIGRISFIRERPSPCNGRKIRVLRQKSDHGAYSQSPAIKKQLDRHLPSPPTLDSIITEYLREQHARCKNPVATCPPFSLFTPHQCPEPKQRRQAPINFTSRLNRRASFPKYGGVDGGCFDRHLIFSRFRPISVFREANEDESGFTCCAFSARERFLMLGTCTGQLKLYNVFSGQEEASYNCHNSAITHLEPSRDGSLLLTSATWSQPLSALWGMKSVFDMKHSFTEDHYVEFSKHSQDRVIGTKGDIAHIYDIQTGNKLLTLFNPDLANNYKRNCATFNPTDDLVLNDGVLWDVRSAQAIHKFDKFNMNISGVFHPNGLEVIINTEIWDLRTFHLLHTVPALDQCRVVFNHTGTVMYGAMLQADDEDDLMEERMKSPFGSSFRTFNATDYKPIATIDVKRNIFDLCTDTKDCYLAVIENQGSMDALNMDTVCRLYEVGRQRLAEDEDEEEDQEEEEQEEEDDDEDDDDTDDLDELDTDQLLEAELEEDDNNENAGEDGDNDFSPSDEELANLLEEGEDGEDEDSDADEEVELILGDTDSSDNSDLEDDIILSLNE
Protocol: (A) Structures of a set of stereochemically defined azetidine acrylamides MY-1A (1), MY-1B (2), MY-3A (3), and MY-3B (4). (B) Heat map showing cysteines that were substantially engaged by azetidine acrylamides (>75% by at least one compound) in human T cells (20 μM compound, 3 h) as determined by MS-ABPP using an iodoacetamide desthiobiotin (IA-DTB) probe following previously described methods^21. Red arrow marks DCAF1_C1113. (C) MS-ABPP quantification of IA-DTB labeling of DCAF1_C1113 from T cells treated with the indicated azetidine acrylamides (20 μM, 3 h) relative to control T cells treated with DMSO. (D) MS-ABPP quantification of IA-DTB labeling of the indicated cysteines in DCAF1 from T cells treated with MY-1B (20 μM, 3 h) relative to control T cells treated with DMSO. For (B-D), data represent average values (for C and D, average values±SEM) from three independent experiments each performed with two technical replicates, where cysteines were required to have been quantified in at least two experiments for interpretation.
Guided by the principles of diversity-oriented synthesis^22, specifically the design of compounds with densely functionalized and entropically constrained sp^3-rich cores bearing one or more stereocenters, we generated a set of stereoisomeric azetidine acrylamides (FIG. 1A) and screened these compounds by cysteine-directed MS-ABPP^23-26 in primary human T cells. Across more than 10000 quantified cysteines, these experiments uncovered several azetidine acrylamide-cysteine interactions (FIG. 1B and Dataset S1), including the stereo-(FIG. 1B, C) and site-(FIG. 1D) selective engagement of C1113 on the E3 ligase substrate adaptor DCAF1. […] Other quantified cysteines in DCAF1 were unaffected by MY-1B (FIG. 1D).

HA-FKBP12 = biological target: T3, HA-FKBP12 (Homo sapiens, UniProt P62942); test: HA-FKBP12 abundance by Western blotting in transfected HEK293T cells; assay type: cell-based; conditions: for quantity of HA-FKBP12 and FLAG-DCAF1 in inhibitor-treated cells: HEK293T co-expressing HA-FKBP12 and FLAG-DCAF1
T3 construct: expressed in transfected cells; host or cells: HEK293T
T3 sequence (P62942 whole entry): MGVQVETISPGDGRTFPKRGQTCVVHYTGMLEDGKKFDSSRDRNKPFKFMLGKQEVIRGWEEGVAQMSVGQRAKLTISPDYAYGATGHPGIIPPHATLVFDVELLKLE
Text: (A) Left, western blots showing concentration-dependent effects of YT47R (upper) and YT41R (lower) on FKBP12 abundance in HEK293T cells expressing HA-FBKP12 with or without co-expression of FLAG-DCAF1. Right, quantification of HA-FKBP12 abundance in the indicated experimental groups. (B) Left, western blots showing effects of YT47R versus YT47S (upper) and YT41R versus YT41S (lower) on FKBP12 abundance in HEK293T cells co-expressing HA-FBKP12 and FLAG-DCAF1. Right, quantification of HA-FKBP12 abundance in the indicated experimental groups. (C) Western blots showing effects of YT47R (left blots) and YT41R (right blots) on FKBP12 abundance in HEK293T cells co-expressing HA-FBKP12 and either FLAG-DCAF1-WT or FLAG-DCAF1-C1113A mutant. Quantification of HA-FKBP12 abundance in the indicated experimental groups is shown in the adjacent bar graphs. For (A-C), FKBP12 abundance was determined at 24 h post-treatment with compounds, and data are mean values±SEM for three independent experiments. Statistical significance was calculated with unpaired two-tailed Student's t-tests comparing YT41R/YT47R- and DMSO-treated cells. ***P<0.001, ****P<0.0001.
(A) Left, western blots showing effects of proteasome (MG132) and Neddylation (MLN4924) inhibitors (1 h pre-treatment) on YT47R- and YT41R-dependent degradation of FKBP12 in HEK293T cells co-expressing HA-FBKP12 and FLAG-DCAF1. FKBP12 abundance was determined at 24 h post-treatment with YT47R or YT41R. Right, quantification of HA-FKBP12 abundance in the indicated experimental groups. (B) Left, western blots showing effects of the FKBP12 ligand SLF (20 μM) or DCAF1 ligand MY-11B (1 h pre-treatment with 20 μM SLF or 5 μM MY-11B) on YT47R- and YT41R-dependent degradation of FKBP12 in HEK293T cells co-expressing HA-FBKP12 and FLAG-DCAF1. FKBP12 abundance was determined at 24 h post-treatment with YT47R or YT41R. Right, quantification of HA-FKBP12 abundance in the indicated experimental groups. (C) Left, western blots showing effects of MY-11A or MY-11B (5 μM, 1 h pre-treatment) on YT47R- and YT41R-dependent degradation of FKBP12 in HEK293T cells co-expressing HA-FBKP12 and FLAG-DCAF1. FKBP12 abundance was determined at 24 h post-treatment with YT47R or YT41R. Right, quantification of HA-FKBP12 abundance in the indicated experimental groups. For (A-C), data are mean values±SEM for three-five independent experiments. Statistical significance was calculated with unpaired two-tailed Student's t-tests comparing YT41R/YT47R- and DMSO-treated cells. ****P<0.0001.
Figure S3. Concentration-dependent degradation of FKBP12 by DCAF1-directed electrophilic PROTACs. Top, western blots showing concentration-dependent effects of YT47R and YT41R on FKBP12 abundance in HEK293T cells co-expressing HA-FBKP12 and FLAG-DCAF1. Data are mean values±SEM for four independent experiments. Statistical significance was calculated with unpaired two-tailed Student's t-tests comparing YT41R/YT47R- and DMSO-treated cells. *P<0.1, **P<0.01, ***P<0.001, ****P<0.0001.
Figure S4. Time-dependent degradation of FKBP12 by DCAF1-directed electrophilic PROTACs. Top, western blots showing time-dependent effects of YT47R and YT41R (2 μM each) on FKBP12 abundance in HEK293T cells co-expressing HA-FBKP12 and FLAG-DCAF1. Data are mean values±SEM for four independent experiments. Statistical significance was calculated with unpaired two-tailed Student's t-tests comparing YT41R/YT47R- and DMSO-treated cells. ****P<0.0001.
We next treated HEK293T cells co-transfected with FLAG epitope-tagged full length DCAF1 (a.a.'s 1-1507) and HA (hemagglutinin) epitope-tagged FKBP12 with a concentration range of YT41R or YT47R and, after 24 h, measured HA-FKBP12 abundance by Western blotting.

C=CC(=O)C1C[C@@H](c2ccc(C(=O)NCCOCCOCCNC(=O)COc3cccc([C@@H](CCc4ccc(OC)c(OC)c4)OC(=O)[C@@H]4CCCCN4C(=O)C(=O)C(C)(C)CC)c3)cc2)[C@H]1C(=O)Nc1cccc2cccnc12 (stereo partly shown) [YT41S]
inhibition of MY-11B probe reactivity with recombinant DCAF1 ([1]; 2 h, then MY-11B 25 μM 1 h, YT41S and YT47S at single concentration 100 μM): did not impair

C=CC(=O)N1C[C@@H](c2ccc(Br)cc2)[C@@H]1C(=O)Nc1cccc2cccnc12 [MY-3B, (2S,3S)-1-acryloyl-3-(4-bromophenyl)-N-(87uinoline-8-yl) azetidine-2-carboxamide]
reactivity with DCAF1_C1113 (DCAF1_C1113): weaker enantioselective interaction

CC(C)C[C@@H](C=O)NC(=O)[C@H](CC(C)C)NC(=O)[C@H](CC(C)C)NC(=O)OCc1ccccc1 [MG132, reference compound] (Cbz-Leu-Leu-Leu-aldehyde)
effect on YT41R/YT47R-mediated degradation of HA-FKBP12 (HA-FKBP12; 5 μM, 1 h pre-treatment followed by 24 h co-treatment with YT41R/YT47R): blocked
quantity of HA-FKBP12 and FLAG-DCAF1 in inhibitor-treated cells (HA-FKBP12): increased quantities

CCC(C)(C)C(=O)C(=O)N1CCCC[C@H]1C(=O)O[C@H](CCc1ccc(OC)c(OC)c1)c1cccc(N)c1 [SLF, reference compound]
effect on YT41R and YT47R-mediated degradation of HA-FKBP12 (HA-FKBP12; 20 μM, 1 h pre-treatment): blocked

NS(=O)(=O)OC[C@@H]1C[C@@H](n2ccc3c(N[C@H]4CCc5ccccc54)ncnc32)C[C@@H]1O [MLN4924, reference compound]
quantity of HA-FKBP12 and FLAG-DCAF1 in inhibitor-treated cells (HA-FKBP12): without causing alterations
effect on YT41R/YT47R-mediated degradation of HA-FKBP12 (HA-FKBP12; NAE inhibitor, 1 h pre-treatment): impaired

C=CC(=O)N1C[C@H](c2ccc(Br)cc2)[C@@H]1C(=O)Nc1cccc2cccnc12 [MY-1B, (2R,3S)-1-acryloyl-3-(4-bromophenyl)-N-(84uinoline-8-yl) azetidine-2-carboxamide]
reactivity with DCAF1_C1113 (DCAF1_C1113): strongest reactivity
effect on other quantified cysteines in DCAF1 (DCAF1_C1113; 20 μM): unaffected
block of MY-11B labeling of recombinant DCAF1 by pre-treatment ([1]; 2 h pre-treatment): blocked
IC50 ([1]; gel-ABPP, 2 h pre-treatment, 95% C.I.=13-38 μM, read-out: in vitro target engagement value (TE50) for labeling of DCAF1): ~25 µM

C=CC(=O)N1C[C@@H](c2ccc(Br)cc2)[C@H]1C(=O)Nc1cccc2cccnc12 [MY-1A, (2S,3R)-1-acryloyl-3-(4-bromophenyl)-N-(84uinoline-8-yl) azetidine-2-carboxamide]
reactivity with DCAF1_C1113 (DCAF1_C1113): inactive
block of MY-11B labeling of recombinant DCAF1 by pre-treatment ([1]; 2 h pre-treatment): not
